“Also recorded” adds a separate entry of the source.
Legend:
mice with reperfused MI = details: pre-treating prior to ischemia; cited from earlier work
[1] = cited from earlier work
[2] = system: rats subjected to hMIs (90-min I/R); details: for LVEF: echocardiography, EDTA 40 mg/kg/day oral gavage upon reperfusion, followed 4 weeks, PBS 30±4%; for Adverse LV remodeling / cardioprotection: rats with hMI, post reperfusion treatment
cardiomyocyte culture = test: Total ROS in cardiomyocyte culture treated with Hx, DFP, hemin; type: cell-based; details: compared to controls; FIG. 16 axis μM/mg protein/min
Source text: FIG. 16 is a bar graph depicting the total ROS production (μM/mg protein/min) in cardiomyocyte culture treated with different agents or control, indicating the importance of physiochemical state of degradation products of hemorrhage being the therapeutic targets.
Physiochemical features of degradation products of hemorrhage are important for determining optimal therapy. An early byproduct of hemorrhage is extracellular heme (an Fe^2+ complex), which is eventually internalized by cardiomyocytes. Applicant tested whether pretreating cardiomyocytes in culture with hemopexin (Hx), a heme scavenger, can rescue the cells from oxidative stress compared to an intracellular Fe^3+ chelator deferiprone (DFP). Methods: Studies were performed in an cardiomyocyte culture. Total ROS following treatment with Hx, DFP, hemin, hemin+Hx, hemin+DFP were measured. […] Summary: Location of hemorrhagic byproducts (intra- vs. extra-cellular) and oxidation state are critical features that need to be accounted for in the development of therapies against hMI. To develop an optimal ICT strategy against hMI we will identify the physiochemical features of hemorrhagic byproducts in rats with hMI sacrificed at different time points.

[3] = system: dogs with reperfused hemorrhagic MI; test: Deferiprone interventional arm in canine model of hemorrhagic MI (serial CMR); type: in vivo, dog
post MI patients = details: 6 months of EDTA therapy starting 6-weeks post MI; cited from earlier work
[4] = system: rats with 90-min I/R (hMI); test: Hemopexin treatment of rats with 90-min I/R (hMI); type: in vivo, rat
Source text: FIGS. 12A and 12B depict the therapeutic benefits of hemopexin (Hx). […] Note the ventricular dilation in rats treated with PBS (not evident Hx treated rates). Long- and shor-axis (along dotted lines) views are shown.
Background: Hemopexin (Hx), a known scavenger of heme, and a key byproduct of hemorrhage. Applicant tested whether treating rats with 90-min I/R (known to yield hMI) with Hx could reduce oxidative stress in the acute phase and improve LV remodeling in the chronic phase. Methods: Rats (n=12) underwent 90-min I/R: 50% of the animals were treated with Hx (700 μg, i.p. immediately and 2 days post reperfusion) and the rest were treated with PBS. LV function was determined with echo. Half of each group was sacrificed at 24-hrs and the rest were sacrificed at 1-month post MI. […] LVEF were: 51±4% (Hx+) vs 32±5% (control), p<0.05. Summary: Heme-specific scavenger, Hx, can attenuate the adverse effects of hMI.

[5] = DFP 100 mg/kg/day oral gavage from 3 days post reperfusion
[6] = vs EDTA-treated or placebo controls

Q: With `c1ccc(-c2ccccn2)nc1` [BPD, 2,2-bipyridl] as the molecule, how does the “Mitochondrial iron and reperfusion injury” value (mice with reperfused MI) read?
A: could reduce

Q: For `CC(=O)N(O)CCCCCNC(=O)CCC(=O)N(O)CCCCCNC(=O)CCC(=O)N(O)CCCCCN` [DFO, deferoxamine], which “Lipid solubility (note in Location column)” value [1] is on record?
A: (lipid insoluble)

Q: For `Cc1c(O)c(=O)ccn1C` [DFP, Deferiprone], which “Safety of delayed treatment” value [2, 5] is on record?
A: safe

Q: What about the “Iron and proinflammatory markers in the scarred myocardium” value ([2]; IL-1β, TNF-α, MMP9, vs EDTA-treated or placebo controls) of the same molecule?
A: reduced

Q: What about the “Iron in MI zones” value ([2]; T2*-CMR / Prussian Blue, vs EDTA-treated or placebo controls) of the same molecule?
A: little to no iron; also recorded: much lower

Q: And the LVEF [2, 5]?
A: 42±4%

Q: And the “Adverse LV remodeling / cardioprotection” value [2]?
A: marked reduction

Q: And the LV dilatation [2, 6]?
A: reduced

Q: What about the “Wall thickness (infarcted and remote)” value [2, 6] of the same molecule?
A: thicker

Q: And the “Total ROS, agent alone” value (cardiomyocyte culture)?
A: did not increase

Q: And the “Relative PDFF in the MI zones, change between D3 and Wk8” value ([3]; DFP+/IMH+ group)?
A: did not show an increase

Q: What about the LVEF ([3]; DFP+/IMH+ group by M6, p<0.03) of the same molecule?
A: over 40%

Q: And the “Remote wall thickness, change over the 6-month period” value ([3]; DFP+/IMH+ group, diastolic)?
A: decreased

Q: And the “Magnitude of peak circumferential strain (Peak εc) vs DFP−/IMH+ group” value ([3]; Wk8 to M6 and D3 to M6, p<0.05)?
A: significant greater

Q: And the “Fat infiltration within the MI zones vs DFP−/IMH+ group” value ([3]; at M6)?
A: significantly lower

Q: What about the “Infarct wall thickness, treated group compared to untreated group” value ([3]; at M6, p<0.05) of the same molecule?
A: +34%

Q: What about the “Infarct-to-remote wall thickness (I:RWT), DFP+/IMH+ vs DFP−/IMH+” value ([3]; at M6, p<0.05) of the same molecule?
A: +67%

Q: And the “Remote wall thickness, DFP−/IMH+ group compared to DFP+/IMH+ group” value ([3]; at M6, untreated larger, p<0.05)?
A: +28%

Q: And the “LVEF, DFP+/IMH+ group vs DFP−/IMH+ group” value ([3]; at Month 6, p<0.005)?
A: +36%

Q: And the “Fat content based on PDFF (normalized to D3) vs untreated group” value ([3]; at Wk8 and M6)?
A: marked reduction

Q: And the “End-systolic volume (ESV) vs DFP−/IMH+ group” value ([3]; at both Wk8 and Mo6, p<0.05)?
A: lower

Q: What about the “Fat content within MI zone vs untreated control group” value ([3]; at the end of the treatment period (Wk8)) of the same molecule?
A: decreased precipitously

Q: With `O=C(O)CN(CCN(CC(=O)O)CC(=O)O)CC(=O)O` [EDTA, ethylenediaminetetraacetic acid] as the molecule, how does the LVEF [2, 5] read?
A: 32±3%

Q: And the “Adverse LV remodeling / cardioprotection” value [2]?
A: did not decrease; also recorded: does not provide cardioprotection

Q: What about the MACE (post MI patients) of the same molecule?
A: did not decrease

Q: What about the “Stability of ferric-EDTA complex” value ([1]; can be transformed to ferrous-EDTA in vivo) of the same molecule?
A: unstable

Q: With hemin as the molecule, how does the “Total ROS, agent alone” value (cardiomyocyte culture) read?
A: markedly increased

B1: hemopexin (protein, UniProt P02790 24-462, looked up)
Hemopexin: TPLPPTSAHGNVAEGETKPDPDVTERCSDGWSFDATTLDDNGTMLFFKGEFVWKSHKWDRELISERWKNFPSPVDAAFRQGHNSVFLIKGDKVWVYPPEKKEKGYPKLLQDEFPGIPSPLDAAVECHRGECQAEGVLFFQGDREWFWDLATGTMKERSWPAVGNCSSALRWLGRYYCFQGNQFLRFDPVRGEVPPRYPRDVRDYFMPCPGRGHGHRNGTGHGNSTHHGPEYMRCSPHLVLSALTSDNHGATYAFSGTHYWRLDTSRDGWHSWPIAHQWPQGPSAVDAAFSWEEKLYLVQGTQVYVFLTKGGYTLVSGYPKRLEKEVGTPHGIILDSVDAAFICPGSSRLHIMAGRRLWWLDLKSGAQATWTELPWPHEKVDGALCMEKSLGPNSCSANGPGLYLIHGPNLYCYSDVEKLNAAKALPQPQNVTSLLGCTH
notes: a known scavenger of heme
Q: With B1 as the molecule, how does the LV remodeling ([4]; 1-month post reperfusion, vs PBS-treated group) read?
A: better

Q: What about the “Total ROS (production within MI)” value ([4]; 24 hrs post reperfusion, Hx 700 μg i.p. immediately and 2 days post reperfusion, vs PBS control) of the same molecule?
A: significantly lower

Q: What about the LVEF ([4]; echo, Hx 700 μg i.p. immediately and 2 days post reperfusion, control 32±5%, p<0.05) of the same molecule?
A: 51±4%

Q: What about the “Total ROS, agent alone” value (cardiomyocyte culture) of the same molecule?
A: did not increase
